Reference: ChEMBL document CHEMBL4431353, “Optimization of a Series of Bivalent Triazolopyridazine Based Bromodomain and Extraterminal Inhibitors: The Discovery of (3R)-4-[2-[4-[1-(3-Methoxy-[1,2,4]triazolo[4,3-b]pyridazin-6-yl)-4-piperidyl]phenoxy]ethyl]-1,3-dimethyl-piperazin-2-one (AZD5153)” (J Med Chem, 2016)
≈ marks a conversion by molar mass, not a printed value.

Legend:
[1] = target: T1, Bromodomain-containing protein 4 (Homo sapiens, UniProt O60885); assay: Displacement of Alexa647-labeled JQ1 derivative from wild type BRD4 tandem domain (44 to 460 residues) (unknown origin) incubated for 1 hr by fluorescence polarization assay
[2] = target: T1, Bromodomain-containing protein 4; assay: Inhibition of BRD4 in human MCF7 cells assessed as down regulation of ERalpha after 18 to 24 hrs by Hoechst staining based cellomics arrayscan analysis; type: cell-based
[3] = target: T1, Bromodomain-containing protein 4; assay: Inhibition of BRD4 in human MM1S cells assessed as down regulation of c-Myc incubated for 16 hrs by flow cytometry; type: cell-based
MM1.S = assay: Growth inhibition of human MM1S cells after 72 hrs by alamar blue assay; type: functional
[4] = Lipophilicity, log D of compound at pH 7.4; type: physicochemical; settings: buffer
[5] = Thermodynamic solubility of compound in pH 7.4 solution; type: physicochemical; settings: buffer, read-out: Therm_solubility
[6] = Intrinsic clearance in human hepatocytes assessed per million cells; type: ADME, cell-based, Hepatocyte; settings: read-out: CLH
[7] = target: Bromodomain-containing protein 4 (Homo sapiens, UniProt O60885, N140A)
[8] = target: Bromodomain-containing protein 4 (Homo sapiens, UniProt O60885, N433A)
[9] = Dissociation constant, basic pKa of compound; type: physicochemical
[10] = Apparent permeability from apical to basolateral side in human Caco2 cells; type: ADME, cell-based; settings: Caco-2
[11] = Unbound fraction in rat plasma; type: ADME, cell-free
[12] = Unbound fraction in dog plasma; type: ADME, cell-free, Canis lupus familiaris
[13] = Unbound fraction in human plasma; type: ADME, cell-free
[14] = Intrinsic clearance in dog hepatocytes assessed per million cells; type: ADME, cell-based, Canis lupus familiaris, Hepatocyte; settings: read-out: CLH
[15] = Intrinsic clearance in rat hepatocytes assessed per million cells; type: ADME, cell-based, Hepatocyte; settings: read-out: CLH
[16] = Plasma clearance in rat; type: ADME
[17] = Volume of distribution at steady state in rat; type: ADME; settings: in vivo, read-out: Vdss
[18] = Oral bioavailability in rat; type: ADME, organism-based; settings: in vivo
[19] = Plasma clearance in dog; type: ADME, Canis lupus familiaris
[20] = Volume of distribution at steady state in dog; type: ADME, Canis lupus familiaris; settings: in vivo, read-out: Vdss
[21] = Oral bioavailability in dog; type: ADME, organism-based, Canis lupus familiaris; settings: in vivo
[22] = target: T1, Bromodomain-containing protein 4; assay: Inhibition of BRD4 in human LNCAP cells assessed as down regulation of nuclear AR level by immunofluorescence assay; type: cell-based

| Ki [1] | IC50 [2] | IC50 [3] | GI50 (MM1.S) | logD [4] | solubility thermodynamic [5] | hepatocyte CLint [6] | Ki [7] | Ki [8] | IC50 [22] | Structure (SMILES) | other results |
| --- | --- | --- | --- | --- | --- | --- | --- | --- | --- | --- | --- |
| 0.0158 µM | 0.0398 µM | 0.0251 µM | 0.00501 µM | 2.4 | 670 µM (≈ 311 µg/mL) | 7.2 µL/min/1e6 cells | 0.2 µM | 0.251 µM | – | Cc1nnc2ccc(N3CCC(c4ccc(OCCN5CCN(C)C(=O)[C@H]5C)cc4)CC3)nn12 | – |
| 0.0501 µM | 0.158 µM | – | – | 2 | 760 µM (≈ 394 µg/mL) | 2.7 µL/min/1e6 cells | 0.316 µM | 0.158 µM | – | COc1nnc2ccc(N3CCC(c4ccc(N5CCC(N6CCN(C)C(=O)[C@H]6C)CC5)cc4)CC3)nn12 | – |
| 0.126 µM | 0.316 µM | 0.0794 µM | – | 2.2 | 900 µM (≈ 432 µg/mL) | < 1.4 µL/min/1e6 cells | 1 µM | 0.251 µM | – | COc1nnc2ccc(N3CCC(c4ccc(OCCN5CCN(C)C(=O)[C@@H]5C)cc4)CC3)nn12 | – |
| 0.00316 µM | 0.0251 µM | 0.01 µM | 0.00501 µM | 2.5 | 280 to 570 µM (≈ 130 to 264 µg/mL) | 2 to 2.2 µL/min/1e6 cells | 0.126 µM | 0.1 µM | – | COc1nnc2ccc(N3CCC(c4ccc(CCN5CCN(C)C(=O)[C@H]5C)cc4)CC3)nn12 | pKa [9]: 6.3; Papp A→B [10]: 280 nm/s; fraction unbound [11]: 0.02; fraction unbound [12]: 0.24; fraction unbound [13]: 0.25; hepatocyte CLint [14]: < 1 µL/min/1e6 cells; hepatocyte CLint [15]: < 1 µL/min/1e6 cells; clearance [16]: 0.18 L/h/kg; Vd [17]: 0.7 L/kg; bioavailability [18]: 72%; clearance [19]: 0.18 L/h/kg; Vd [20]: 0.9 L/kg; bioavailability [21]: 98% |
| 0.00794 µM | 0.0251 µM | 0.01 µM | 0.00501 µM | 3.3 to 4.2 | 63 µM (≈ 32.6 µg/mL) | 70 µL/min/1e6 cells | 0.0631 µM | 0.398 µM | 0.0398 µM | C[C@@H]1C(=O)N(C)CCN1CCOc1ccc(C2CCN(c3ccc4nnc(C(F)(F)F)n4n3)CC2)cc1 | – |
| 0.01 µM | 0.00398 µM | < 0.002 µM | 0.00159 µM | 1.7 | 460 to 1000 µM (≈ 232 to 505 µg/mL) | 4 to 4.1 µL/min/1e6 cells | 0.1 µM | 0.158 µM | – | COc1nnc2ccc(N3CCC(c4ccc(N5CC(CN6CCN(C)C(=O)[C@H]6C)C5)cc4)CC3)nn12 | pKa [9]: 5.9; Papp A→B [10]: 460 nm/s; fraction unbound [11]: 0.05; fraction unbound [12]: 0.27; fraction unbound [13]: 0.32; hepatocyte CLint [14]: 3 µL/min/1e6 cells; hepatocyte CLint [15]: < 1 µL/min/1e6 cells; clearance [16]: 0.42 L/h/kg; Vd [17]: 1.61 L/kg; bioavailability [18]: 57%; clearance [19]: 0.3 L/h/kg; Vd [20]: 0.7 L/kg; bioavailability [21]: 73% |
| 0.00794 µM | 0.02 µM | 0.0126 µM | 0.00631 µM | 2.3 | 750 µM (≈ 370 µg/mL) | 80 µL/min/1e6 cells | 0.251 µM | 0.126 µM | – | COc1nnc2ccc(N3CCC(c4ccc(OCCN5[C@H](C)CN(C)C(=O)[C@H]5C)cc4)CC3)nn12 | – |
| 0.00501 µM | 0.0398 µM | – | – | 3.4 | 280 µM (≈ 142 µg/mL) | 48 µL/min/1e6 cells | 0.158 µM | 0.0501 µM | – | COc1nnc2ccc(N3CCC(c4ccc(OCCN5C[C@@H](C)N(C(C)=O)[C@@H](C)C5)cc4)CC3)nn12 | – |
| 0.0631 µM | 0.794 µM | – | – | 1.7 | 870 µM (≈ 427 µg/mL) | < 1.2 µL/min/1e6 cells | 0.398 µM | 0.2 µM | – | COc1nnc2ccc(N3CCC(c4ccc(N5CC(N6CCN(C)C(=O)[C@H]6C)C5)cc4)CC3)nn12 | – |
| 0.00398 µM | 0.02 µM | 0.00316 µM | < 0.00159 µM | 2.4 | > 1000 µM | 5.1 µL/min/1e6 cells | 0.0631 µM | 0.0794 µM | – | COc1nnc2ccc(N3CCC(c4ccc(OCCCN5CCN(C)C(=O)[C@H]5C)cc4)CC3)nn12 | – |
| 0.0126 µM | 0.0316 µM | 0.02 µM | – | 2.9 | 660 µM (≈ 327 µg/mL) | 21 µL/min/1e6 cells | 0.126 µM | 0.158 µM | 0.0251 µM | CSc1nnc2ccc(N3CCC(c4ccc(OCCN5CCN(C)C(=O)[C@H]5C)cc4)CC3)nn12 | – |
| 0.0126 µM | 0.0631 µM | 0.0158 µM | 0.00316 µM | 2.4 | 1600 to 1680 µM (≈ 788 to 828 µg/mL) | 4 to 4.4 µL/min/1e6 cells | 0.316 µM | 0.316 µM | 0.0251 µM | C[C@@H]1C(=O)N(C)CCN1CCOc1ccc(C2CCN(c3ccc4nnc(N(C)C)n4n3)CC2)cc1 | fraction unbound [11]: 0.04; fraction unbound [12]: 0.09; fraction unbound [13]: 0.16; hepatocyte CLint [14]: 18 µL/min/1e6 cells; hepatocyte CLint [15]: 13 µL/min/1e6 cells; clearance [16]: 0.36 L/h/kg; Vd [17]: 0.4 L/kg; bioavailability [18]: 42% |
| 0.0126 µM | 0.0398 µM | 0.0794 µM | 0.0199 µM | 3.1 | 63 µM (≈ 30.5 µg/mL) | 24 µL/min/1e6 cells | 0.316 µM | 0.2 µM | 0.0251 µM | C[C@@H]1C(=O)N(C)CCN1CCOc1ccc(C2CCN(c3ccc4nnc(Cl)n4n3)CC2)cc1 | – |
| > 1 µM | > 3.16 µM | 1.26 µM | – | 1.9 | 1000 µM (≈ 450 µg/mL) | 180 µL/min/1e6 cells | 2.51 µM | 6.31 µM | 1.58 µM | C[C@@H]1C(=O)N(C)CCN1CCOc1ccc(C2CCN(c3ccc4nncn4n3)CC2)cc1 | – |
| 2.51 µM | 1 µM | – | – | 3.1 | 52 µM (≈ 26.2 µg/mL) | 26 µL/min/1e6 cells | 7.94 µM | 0.398 µM | – | CN1CCN(CCOc2ccc(C3CCN(c4ccc5nnc(C(F)(F)F)n5n4)CC3)cc2)C(=O)C1 | – |
| 0.2 µM | 0.501 µM | – | – | 3 | 65 µM (≈ 32.7 µg/mL) | 18 µL/min/1e6 cells | 1 µM | 0.316 µM | 0.316 µM | CN1CCN(CCOc2ccc(C3CCN(c4ccc5nnc(C(F)(F)F)n5n4)CC3)cc2)CC1=O | – |
| 0.00158 µM | 0.00158 µM | < 0.002 µM | < 0.002 µM | 2.5 | > 1000 µM | 12 µL/min/1e6 cells | 0.0158 µM | 0.0501 µM | – | COc1nnc2ccc(N3CCC(c4ccc(OCCN5[C@H](C)CN(C(C)=O)C[C@@H]5C)cc4)CC3)nn12 | pKa [9]: 6.2; Papp A→B [10]: 300 nm/s; fraction unbound [11]: 0.06; fraction unbound [12]: 0.16; fraction unbound [13]: 0.19; hepatocyte CLint [14]: 7 µL/min/1e6 cells; hepatocyte CLint [15]: 13 µL/min/1e6 cells; clearance [16]: 1.02 L/h/kg; Vd [17]: 1.5 L/kg; bioavailability [18]: 40%; clearance [19]: 0.66 L/h/kg; Vd [20]: 0.6 L/kg; bioavailability [21]: 28% |
| 0.00631 µM | 0.02 µM | – | – | 2.8 | 470 µM (≈ 239 µg/mL) | 12 µL/min/1e6 cells | 0.1 µM | 0.0631 µM | – | COc1nnc2ccc(N3CCC(c4ccc(OCCCCN5CCN(C)C(=O)[C@H]5C)cc4)CC3)nn12 | – |
